In assay [1] the test system is skin equivalent sold by the company EPISKIN. Kind of assay: Topical DHEA on reconstructed epidermis: epidermal lipid analysis by HPTLC with [14C]acetate labelling. In kind it is cell-based. As to conditions: 2 μl of DHEA at 1×10^−4 M in ethanol, every 48 hours for 6 days, vs ethanol control. The procedure:
In this example, 2 μl of DHEA at 1×10^−4 M in ethanol were applied every 48 hours, for 6 days, to a skin equivalent sold by the company EPISKIN (LYON, France), after culturing it for 7 days and incubating overnight with [^14C]acetate (2 μCi/ml). The culture and test media are those contained in the kit sold by the supplier. The control consists of an identical epidermal equivalent undergoing a topical application of 2 μl of ethanol diluted 1/1 000.
At the end of the incubation, the epidermal equivalent is detached from its collagenic support. The preparation of the lipids of the epidermal equivalent, and their analysis by HPTLC or high performance thin-layer chromatography, are carried out according to the technique and with the buffers described by M. Ponec (1991, Adv. Lipid Res., 24: 83-117). At the end of the migration of the lipids, autoradiography of the chromatography plate is carried out overnight.

The test system is the same in assay [2]. Briefly: Epidermal differentiation in reconstructed epidermis: transglutaminase and filaggrin immunofluorescence, histological analysis. The format is cell-based. As to conditions: 2 μl of DHEA at 1×10^−4 M in ethanol, topical, every 48 hours for 6 days.

As to `C[C@]12CC[C@H](O)CC1=CC[C@@H]1[C@@H]2CC[C@]2(C)C(=O)CC[C@@H]12` [DHEA, dehydroepiandrosterone], in assay [1], the “increase in the epidermal content of phospholipids compared with the control” value was 35%. In assay [2], the “histological analysis: number of granular layers or parakeratosis” value is recorded as “no increase in the number of granular layers or in parakeratosis”; the “modification in epidermal differentiation (expression of transglutaminase and of filaggrin, immunofluorescence labelling)” value was “no modification in epidermal differentiation”.

The values are drawn from patent publication US20040009196A1, “Use of dhea and some of its derivatives in a cosmetic composition for preventing or treating dermal atrophy” (priority 2000, published 2004).
